From patent US4224329A, “2-Substitute d-trans-5-aryl-2,3,4,4a,5,9b-hexahydro-1H-pyrido[4,3-b]indoles” (Pfizer Inc., priority 1979, dated 1980)
Where a name gives a salt, the structure may show the parent alone. Read-outs that look alike come from different tables or passages of the source.

Assays:
Amphetamine Stereotypy = assay: Antagonism of Amphetamine Stereotypy in Rats (ED50 for blocking characteristic amphetamine cage movement); type: in vivo; conditions: for ED50: Rattus norvegicus; for ED50, 24 Hrs.: 1440 min; for ED50, 48 Hrs.: 2880 min; for ED50, 72 Hrs.: 4320 min
Protocol: The effects of the compounds of the present invention on prominent amphetamine-induced symptoms were studied in rats by a rating scale modeled after the one reported by Quinton and Halliwell, and Weissman. Groups of five rats were placed in a covered plastic cage measuring approximately 26 cm.×42 cm.×16 cm. […] They were then treated 1, 5 and 24 hrs. later with d-amphetamine sulfate, 5 mg./kg. intraperitoneally (i.p.). […] On the basis of dose-response data after amphetamine it was possible to determine the effective dose of the compound necessary to antagonize or block the characteristic amphetamine behavior of cage movement for fifty percent of the rats tested (ED50). The time of rating chosen coincides with the peak action of amphetamine which is 60-80 min. after treatment with this agent.
Employing the above-described procedure, the following 4a,9b-trans compounds were tested for their ability to block the behavior effects of amphetamine, the results being reported as the ED50 in mg./kg. at the indicated times: [drawing 30]
A. The following results were obtained on the mixture of diastereomers for those compounds wherein R contains a secondary alcohol group and on the single diastereomer of the other 4a, 9b-trans hexahydro-pyrido-indoles.
B. The results of tests in which compounds of the invention reported in Part A, above are compared with the corresponding δ-substituted-5-aryl-1,2,3,4-tetrahydropyrido[4,3-b]indoles of U.S. Pat. No. 4,001,263 are summarized below. For each pair the results obtained on the prior art compound (a) are given first and the results for the compound of the invention (b) are given second. Where indicated the test compound was also administered orally (p.o.) and tests were carried out for 48 hours.
C. […] In each case the compounds are of the formula
The tests were carried out for 72 hours.

dopamine receptors = dopamine receptors (Rattus norvegicus, UniProt P61169); assay: Inhibition of 3H-Spiroperidol Binding to Dopamine Receptors (rat corpus striatum); parameters: species or system rats (Sprague-Dawley CD males); conditions: 0.5 nM 3H-spiroperidol, 10 minutes at 37° C.
dopamine receptors, sequence (P61169 whole entry): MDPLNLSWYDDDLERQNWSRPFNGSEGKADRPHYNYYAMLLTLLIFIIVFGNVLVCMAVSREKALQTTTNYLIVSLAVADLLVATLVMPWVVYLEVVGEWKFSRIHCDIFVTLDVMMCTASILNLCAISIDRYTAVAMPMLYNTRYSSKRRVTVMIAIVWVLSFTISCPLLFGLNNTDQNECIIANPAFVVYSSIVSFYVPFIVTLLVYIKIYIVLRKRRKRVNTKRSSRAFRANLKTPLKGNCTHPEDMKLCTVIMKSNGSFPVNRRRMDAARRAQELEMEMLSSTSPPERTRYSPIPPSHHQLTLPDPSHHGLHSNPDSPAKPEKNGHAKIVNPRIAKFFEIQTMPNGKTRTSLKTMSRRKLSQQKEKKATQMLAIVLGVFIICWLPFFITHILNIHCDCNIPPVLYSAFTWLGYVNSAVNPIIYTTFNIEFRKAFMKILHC

[1] = ip, 1 h, i.p., Part B, read-out: ED50, 1 Hr.
[2] = ip, 5 h, i.p., Part B, read-out: ED50, 5 Hrs.
[3] = ip, 24 h, i.p., Part B, read-out: ED50, 24 Hrs.
[4] = sc, 1 h, s.c., Part A, read-out: ED50, 1 Hr.
[5] = sc, 5 h, s.c., Part A, read-out: ED50, 5 Hr.
[6] = sc, 24 h, s.c., Part A, read-out: ED50, 24 Hrs.
[7] = po, 1 h, p.o., Part B, read-out: ED50, 1 Hr.
[8] = po, 5 h, p.o., Part B, read-out: ED50, 5 Hrs.
[9] = po, 24 h, p.o., Part B, read-out: ED50, 24 Hrs.
[10] = sc, 1 h, s.c., Part C, isomers of Examples 13 and 14, read-out: ED50, 1 Hr.
[11] = sc, 5 h, s.c., Part C, isomers of Examples 13 and 14, read-out: ED50, 5 Hrs.
[12] = sc, 24 h, s.c., Part C, isomers of Examples 13 and 14, read-out: ED50, 24 Hrs.
[13] = s.c., Part C, isomers of Examples 13 and 14, hydrochloride
[14] = s.c., Part D, enantiomers by synthesis of Example 21, hydrochloride

| Compound | ED50 (Amphetamine Stereotypy; [1]) [mg/kg] | ED50 (Amphetamine Stereotypy; [2]) [mg/kg] | ED50 (Amphetamine Stereotypy; [3]) [mg/kg] | ED50 (Amphetamine Stereotypy; [4]) [mg/kg] | ED50 (Amphetamine Stereotypy; [5]) [mg/kg] | ED50 (Amphetamine Stereotypy; [6]) [mg/kg] | further results |
| --- | --- | --- | --- | --- | --- | --- | --- |
| OC(CCCN1CC[C@H]2[C@H](C1)c1ccccc1N2c1ccccc1)c1ccccc1 (relative stereo) | 0.032 to 0.1 | 0.032 to 0.1 | 0.1 to 0.32 | 0.032 to 0.1 | 0.032 to 0.1 | 0.1 to 0.32 |  |
| OC(CCCN1CC[C@H]2[C@H](C1)c1ccccc1N2c1ccccc1)c1ccc(F)cc1 (relative stereo) |  |  |  | 0.1 to 0.32 | 0.1 to 0.32 | 0.1 to 0.32 |  |
| O=C(CCCN1CC[C@H]2[C@H](C1)c1ccccc1N2c1ccccc1)c1ccc(F)cc1 (relative stereo) |  |  |  | ~0.32 | 0.1 to 0.32 | ~0.32 |  |
| OC(CCCN1CC[C@H]2[C@H](C1)c1cc(F)ccc1N2c1ccc(F)cc1)c1ccccc1 (relative stereo) |  |  |  | 0.1 to 0.32 | 0.1 to 0.32 | < 0.32 |  |
| O=C(CCCN1CC[C@H]2[C@H](C1)c1cc(F)ccc1N2c1ccc(F)cc1)c1ccc(F)cc1 (relative stereo) | < 1 | < 1 | < 1 | < 1 | < 1 | < 1 |  |
| c1ccc(CCCN2CC[C@H]3[C@H](C2)c2ccccc2N3c2ccccc2)cc1 (relative stereo) [R = C6 H5 (CH2)3, reference compound] |  |  |  | 3.2 to 10 | 3.2 to 10 | > 10 |  |
| c1ccc(CN2CC[C@H]3[C@H](C2)c2ccccc2N3c2ccccc2)cc1 (relative stereo) [R = C6 H5 CH2, dl-trans-2-benzyl-2,3,4,4a,5,9b-hexahydro-5-phenyl-1H-pyrido[4,3-b]indole Hydrochloride, reference compound] |  |  |  | ~10 | 3.2 to 32 | > 3.2 |  |
| c1ccc(N2c3ccccc3[C@H]3CNCC[C@@H]32)cc1 (relative stereo) [R = H, dl-trans-5-Phenyl-2,3,4,4a,5,9b-hexahydro-1H-pyrido[4,3-b]indole, reference compound] |  |  |  |  |  |  | ED50 (Amphetamine Stereotypy; sc, 1 h, read-out: ED50, 1 Hr.): 3.2 to 32 mg/kg; ED50 (Amphetamine Stereotypy; sc, 5 h, read-out: ED50, 5 Hr.): > 3.2 mg/kg; ED50 (Amphetamine Stereotypy; sc, 24 h, read-out: ED50, 24 Hrs.): > 32 mg/kg |
| OC(CCCN1CC[C@H]2[C@@H](C1)c1ccccc1N2c1ccccc1)c1ccc(F)cc1 (relative stereo) [corresponding 4a, 9bcis analog, reference compound] |  |  |  | 56 |  |  |  |
| OC(CCCN1CC[C@H]2[C@H](C1)c1cc(F)ccc1N2c1ccc(F)cc1)c1ccc(F)cc1 (relative stereo) [drawing 37, dl-trans-8-Fluoro-5-(p-fluorophenyl)-2-[4-hydroxy-4-(p-fluorophenyl)butyl]-2,3,4,4a,5,9b-hexahydro-1H-pyrido[4,3-b]indole hydrochloride] | 0.032 to 0.1 | 0.032 to 0.1 | 0.032 to 0.1 | 0.032 to 0.1 | 0.032 to 0.1 | 0.032 to 0.1 | ED50 (Amphetamine Stereotypy; ip, 48 h, i.p., Part B, read-out: ED50, 48 Hrs.): 0.1 to 0.32 mg/kg; ED50 (Amphetamine Stereotypy; [7]): 0.32 to 1 mg/kg; ED50 (Amphetamine Stereotypy; [8]): 0.1 to 0.32 mg/kg; ED50 (Amphetamine Stereotypy; [9]): 0.1 to 0.32 mg/kg |
| OC(CCCN1CC[C@@H]2[C@@H](C1)c1cc(F)ccc1N2c1ccccc1F)c1ccc(F)cc1 (relative stereo) [trans-8-fluoro-5-(o-fluorophenyl)-2-[4-hydroxy-4-(p-fluorophenyl)butyl]-2,3,4,4a,5,9b-hexahydro-1H-pyrido[4,3-b]indole] | 0.1 to 0.32 | ~0.1 | ~0.1 | < 0.32 | < 0.32 | < 0.32 | ED50 (Amphetamine Stereotypy; [7]): < 1 mg/kg; ED50 (Amphetamine Stereotypy; [8]): < 1 mg/kg; ED50 (Amphetamine Stereotypy; [9]): < 1 mg/kg |
| OC(CCCN1CC[C@H]2[C@H](C1)c1cc(F)ccc1N2c1ccc(F)cc1)c1ccc(F)cc1 (relative stereo) [αβγδ, dl-trans-8-Fluoro-5-(p-fluorophenyl)-2-[4-hydroxy-4-(p-fluorophenyl)butyl]-2,3,4,4a,5,9b-hexahydro-1H-pyrido[4,3-b]indole hydrochloride] |  |  |  |  |  |  | ED50 (Amphetamine Stereotypy; [10]): 0.032 to 0.1 mg/kg; ED50 (Amphetamine Stereotypy; [11]): 0.032 to 0.1 mg/kg; ED50 (Amphetamine Stereotypy; [12]): 0.032 to 0.1 mg/kg; IC50 (dopamine receptors): 21 nM |
| Cl.OC(CCCN1CC[C@@H]2[C@@H](C1)c1cc(F)ccc1N2c1ccc(F)cc1)c1ccc(F)cc1 (single isomer, unassigned) [α, trans 8-fluoro-5-(p-fluorophenyl)-2-[4-hydroxy-4(p-fluorophenyl)butyl]-2,3,4,4a,5,9b-hexahydro-1H-pyrido[4,3-b]indole hydrochloride] |  |  |  |  |  |  | ED50, 5 Hrs. (Amphetamine Stereotypy; 5 hrs, s.c., Part C, isomers of Examples 13 and 14, hydrochloride, 300 min): 32-100 micrograms/kilograms; ED50, 24 Hrs. (Amphetamine Stereotypy; [13]): 32-100 micrograms/kilograms; ED50, 48 Hrs. (Amphetamine Stereotypy; [14]): ca. 1 mg./kg.; ED50, 72 Hrs. (Amphetamine Stereotypy; [14]): > 10 mg/kg |
| Cl.OC(CCCN1CCC2C(C1)c1cc(F)ccc1N2c1ccc(F)cc1)c1ccc(F)cc1 (single isomer, unassigned) [β, 8-fluoro-5-(p-fluorophenyl)-2-[4-hydroxy-4-(p-fluorophenyl)butyl]-2,3,4,4a,5,9b-hexahydro-1H-pyrido[4,3-b]indole hydrochloride] |  |  |  |  |  |  | ED50 (Amphetamine Stereotypy; [10]): > 1 mg/kg; ED50 (Amphetamine Stereotypy; sc, 1 h, s.c., Part D, enantiomers by synthesis of Example 21, read-out: ED50, 1 Hr.): > 10 mg/kg; ED50 (Amphetamine Stereotypy; [11]): > 1 mg/kg; ED50 (Amphetamine Stereotypy; sc, 5 h, s.c., Part D, enantiomers by synthesis of Example 21, read-out: ED50, 5 Hrs.): 5.7 mg/kg; ED50 (Amphetamine Stereotypy; [12]): > 1 mg/kg; ED50 (Amphetamine Stereotypy; sc, 24 h, s.c., Part D, enantiomers by synthesis of Example 21, read-out: ED50, 24 Hrs.): > 10 mg/kg; ED50 (Amphetamine Stereotypy; sc, 48 h, s.c., Part D, enantiomers by synthesis of Example 21, read-out: ED50, 48 Hrs.): > 10 mg/kg; ED50 (Amphetamine Stereotypy; sc, 72 h, s.c., Part D, enantiomers by synthesis of Example 21, read-out: ED50, 72 Hrs.): > 10 mg/kg |
| OC(CCCN1CC[C@@H]2[C@@H](C1)c1cc(F)ccc1N2c1ccc(F)cc1)c1ccc(F)cc1 (single isomer, unassigned) [γ, trans 8-fluoro-5-(p-fluorophenyl)-2-[4-hydroxy-4(p-fluorophenyl)butyl]-2,3,4,4a,5,9b-hexahydro-1H-pyrido[4,3-b]indole hydrochloride] |  |  |  |  |  |  | ED50, 24 Hrs. (Amphetamine Stereotypy; [13]): 32-100 micrograms/kilograms; ED50, 48 Hrs. (Amphetamine Stereotypy; [14]): ca. 1 mg./kg.; ED50, 72 Hrs. (Amphetamine Stereotypy; [14]): > 1 mg/kg; IC50 (dopamine receptors): 25 nM |
| CN1CCN(CC/C=C2/c3ccccc3Sc3ccc(S(=O)(=O)N(C)C)cc32)CC1 [Navane, cis-9-[3-(4-Methyl-1-piperazinyl)propylidene]-2-(dimethylsulfonamido)thioanthene, reference compound] |  |  |  |  |  |  | ED50 (Amphetamine Stereotypy; po, 1 h, po, Part A, read-out: ED50, 1 Hr.): 0.32 to 1 mg/kg; ED50 (Amphetamine Stereotypy; po, 5 h, po, Part A, read-out: ED50, 5 Hr.): > 10 mg/kg; ED50 (Amphetamine Stereotypy; po, 24 h, po, Part A, read-out: ED50, 24 Hrs.): > 32 mg/kg |
| OC(CCCN1CCc2c(c3ccccc3n2-c2ccccc2)C1)c1ccccc1 (stereo not drawn) [drawing 40 (a), reference compound] | 3.2 to 10 | 3.2 to 10 | > 10 |  |  |  |  |
| OC(CCCN1CCc2c(c3cc(F)ccc3n2-c2ccc(F)cc2)C1)c1ccc(F)cc1 (stereo not drawn) [drawing 41 (a), 8-Fluoro-5-(p-fluorophenyl)-2-[4-(p-fluorophenyl)-4-hydroxybutyl]-1,2,3,4-tetrahydro-γ-carboline hydrochloride, reference compound] | 0.1 to 0.32 | 0.1 to 3.2 | 1 to 3.2 |  |  |  | ED50 (Amphetamine Stereotypy; [7]): 1 to 3.2 mg/kg; ED50 (Amphetamine Stereotypy; [8]): 0.32 to 1 mg/kg; ED50 (Amphetamine Stereotypy; [9]): 1 to 3.2 mg/kg |
| O=C(CCCN1CCc2c(c3cc(F)ccc3n2-c2ccc(F)cc2)C1)c1ccc(F)cc1 [drawing 42 (a), reference compound] | 3.2 to 10 | > 10 |  |  |  |  |  |
| OC(CCCN1CCc2c(c3cc(F)ccc3n2-c2ccccc2F)C1)c1ccc(F)cc1 (stereo not drawn) [drawing 43 (a), reference compound] | 0.32 to 1 | 1 to 3.2 | > 10 |  |  |  |  |
